# In patent publication US4139531A, “1-Nitro-9-alkylaminoalkylaminoacridines and salts thereof” (Politechnika Gdanska, priority 1976, dated 1979):
# Several values for one entry are separate records, joined by “and”; a condition that tells them apart may be missing. Equal entries are not always repeated.
# What was measured:
# [1] = Acute toxicity, LD50, mouse; details: in vivo, observations over 72 hours
# Experimental: (§1) The biological activity analysis was supported by detailed pharmacologic examinations. After observations made over 72 hours, it was determined that the LD50 -value for the preparation C-846 for mice and rats (in mg/kg), was as follows: […]
# [2] = Acute toxicity, LD50, rat; details: in vivo, observations over 72 hours
# Experimental: as §1
# [3] = Maximum tolerance dosage (MTD), mouse; details: in vivo
# Experimental: (§2) Moreover, the maximum tolerance dosage (MTD) for mice and rats was determined (in mg/kg), as follows: […]
# [4] = Maximum tolerance dosage (MTD), rat; details: in vivo
# Experimental: as §2
# rabbits and cats = test: Arterial blood pressure, respiratory function, electrocardiogram and lethal dosage in rabbits and cats; type: in vivo
# [5] = test system: isolated small intestine of guinea-pig; test: Spasmolytic activity, isolated small intestine of guinea-pig; details: concentration 5 × 10^-6
# [6] = test system: isolated small intestine of rat; test: Spasmolytic activity, isolated small intestine of rat; details: concentration of 10^-5
# [7] = test system: small intestine; muscular coat of the urinary bladder; test: Spasmolytic activity in vivo, small intestine and urinary bladder of rabbit and cat; details: intravenous, dosages of more than 5 mg/kg
# central nervous system = type: in vivo, mice
# rats and rabbits = test: Prolonged (three-month) toxicity investigations on rats and rabbits; type: in vivo
# Experimental: Prolonged investigations were carried out on rats and rabbits during the whole three-month-exposition period of time, introducing dosages corresponding to 1/150, 1/100 and 1/50 of the LD50 -value. This last dosage was a dosage which was maximally tolerated during this period of time.
# rats = test: Reproduction and offspring development in rats; type: in vivo
# Local irritating action = type: in vivo
# [8] = test system: Crocker mice sarcoma (Sa-180); test: Growth inhibition of the Crocker mice sarcoma (Sa-180); type: in vivo; details: dosage of 0.2 mg/kg, intraperitoneally, dihydrochloride
# Experimental: The growth inhibition of the Crocker mice sarcoma (Sa-180).
# For this investigation, mice of about three months in age and a weight of about 25 g were used. These animals were inoculated with a section of the neoplasm (Sa-180) and were divided into groups: the first of control - 10 mice; and two to four groups of "under treatment" ones (seven mice each).
# The compounds investigated were administered intraperitoneally in appropriate doses, after previous determination of the maximum tolerance dosage.
# A criterion of the evaluation the anti-neoplastic activity of the compounds tested was accepted wherein the percent difference between mean weights of the nodules (tumours) of control mice and of those which received the preparations, taking into account the toxic effects.
# [9] = large dosages, more than 8 mg/kg
# [10] = rabbits and cats, intraperitoneal, dosages up to 10 mg/kg
compound,measurement,setting,value
"CC(C)NCCCNc1c2ccccc2nc2cccc([N+](=O)[O-])c12.Cl.Cl [Example C-846, 1-nitro-9-isopropylaminopropylaminoacridine dihydrochloride]",LD50 at 72 h,[1]; iv,2.2 ± 0.1 mg/kg
same,LD50 at 72 h,[1]; po,126 ± 24.7 mg/kg
same,LD50 at 72 h,[2]; iv,0.95 ± 0.1 mg/kg
same,LD50 at 72 h,[2]; po,127 ± 17.8 mg/kg
same,MTD,[3]; iv,1.85 mg/kg
same,MTD,[3]; po,27.2 mg/kg
same,MTD,[4]; iv,0.63 mg/kg
same,MTD,[4]; po,75 mg/kg
same,effect on blood pressure,"rabbits and cats; intravenous injection, 2 mg/kg",insignificant and transient hypotony
same,effect on respiration,"rabbits and cats; intravenous injection, 2 mg/kg",instinctive acceleration of deepened respiration
same,PQ segment,rabbits and cats; [9],prolongation of the PQ segment
same,QRS-Complex,rabbits and cats; [9],dilation of the QRS-Complex
same,changes in electrocardiograms,rabbits and cats; [9],"transient changes in electrocardiograms were noted, due to the disturbances of the atrio-ventricular and intra-ventricular conductivity"
same,effects of the lethal dosages,"rabbits and cats; rabbits and cats, about 15 mg/kg, i.v.",permanent hypotony and respiration disturbances or even apnoea
same,lethal dosages,"rabbits and cats; rabbits and cats, i.v.",~15 mg/kg
same,effect on the arterial blood pressure,rabbits and cats; [10],did not have any effect
same,effect on the respiratory function,rabbits and cats; [10],did not have any effect
same,muscular tension and spontaneous intestine peristalsis (spasmolytic activity),[5],a decrease was noted in the muscular tension and an atrophy of spontaneous intestine peristalsis
same,muscular tension and spontaneous intestine peristalsis (spasmolytic activity),[6],a decrease was noted in the muscular tension and an atrophy of spontaneous intestine peristalsis
same,spasmolytic activity regarding the small intestine and the muscular coat of the urinary bladder,[7],such an activity
same,influence on spontaneous and forced motor activity,"central nervous system; mice, dosages up to 1/10 LD50",did not influence in such dosages in essential manner
same,"influence on the action of hypnotic agents (luminal, chloral hydrate) and of convulsant agents (Cardiazol, strychnine)","central nervous system; mice, dosages up to 1/10 LD50",did not influence
same,activity on the central nervous system,"central nervous system; mouse, in vivo",did not demonstrate any evident and oriented activity
same,blood coagulation time,rats and rabbits; in the third month,a certain prolongation was noted
same,"histology, germinal epithelium / testicles",rats and rabbits; in vivo,"some degenerative lesions appeared in a range of the germinal epithelium, in the range of testicles"
same,"histology, intestinal epithelium and glandular texture",rats and rabbits; in vivo,a desquamation (desfoliation) of the intestinal epithelium and an atrophy of the glandular texture
same,"histology, lymphatic system",rats and rabbits; in vivo,"a decrease in the amount of the reproductive centers was noted, as well as a decrease in the amount of the small lymphocytes"
same,"histology, other internal organs",rats and rabbits; in vivo,did not show any other microscopic changes
same,"histology, spermatogenesis",rats and rabbits; in vivo,"some disturbances in spermatogenesis, a decrease in the amount of sperm cells"
same,activity of the acid phosphatase,"rats and rabbits; only after the highest dosages, prolonged time of exposition",increase in activity of the acid phosphatase was observed
same,"hepatic functional tests (AlAt, AspAt, acid and alkaline phosphatases, thymol turbidity test)","rats and rabbits; rats and rabbits, three months",did not show an occurrence of any pathologic lesions
same,influence on the peripheral blood or medular hematopoietic system,"rats and rabbits; rats and rabbits, three months","could not be proved, that the preparation had influence"
same,"renal tests (creatinine clearance, glomerular filterability)","rats and rabbits; rats and rabbits, three months",did not show any deviation from the norm
same,dosage maximally tolerated during three months,"rats and rabbits; rats and rabbits, three-month exposition",1/50
same,amount of infant animals in the brood,rats,decreased
same,capacity to conceive or induce conception / ability of females to become pregnant,rats,did not inhibit
same,macroscopic malformations,rats,no macroscopic malformations were observed
same,ontogenetic development of infant animals,rats,retarded
same,local irritating action,Local irritating action; concentrations of from 0.05 to 1.0%,exerted a local irritating action
same,local changes caused by the intravenous injection,Local irritating action; phosphate buffer solution at pH 7 as solvent,could be eliminated
"CCNCCCNc1c2ccccc2nc2cccc([N+](=O)[O-])c12.Cl.Cl [Example C-845, 1-nitro-9-ethylaminopropylaminoacridine dihydrochloride]",inhibition values of Crocker's sarcoma (Sa-180),[8],48% and 49% and 57%
